{
  "source": "paper PMC4685510",
  "about": "“A Cell Biologist’s Field Guide to Aurora Kinase Inhibitors” (Frontiers in Oncology, 2015)",
  "key": {"[1]": {"molecular_target": "363 human kinases (including Aurora A/B/C) (Homo sapiens, UniProt P49841)", "sequence (P49841 whole entry)": "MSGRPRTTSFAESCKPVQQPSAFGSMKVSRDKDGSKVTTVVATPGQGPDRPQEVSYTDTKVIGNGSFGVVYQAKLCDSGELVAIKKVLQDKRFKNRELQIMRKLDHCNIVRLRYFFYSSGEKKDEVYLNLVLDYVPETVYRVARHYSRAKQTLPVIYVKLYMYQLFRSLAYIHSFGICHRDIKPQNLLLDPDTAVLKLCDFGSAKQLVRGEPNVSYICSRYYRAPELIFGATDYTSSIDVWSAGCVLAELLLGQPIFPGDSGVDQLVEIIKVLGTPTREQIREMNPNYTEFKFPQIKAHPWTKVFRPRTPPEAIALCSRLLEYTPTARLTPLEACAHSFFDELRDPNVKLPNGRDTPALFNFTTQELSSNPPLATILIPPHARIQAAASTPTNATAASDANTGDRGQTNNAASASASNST", "assay": "biochemical", "type": "biochemical", "conditions": "GSK3b; for remaining activity at 0.1 µM: 100 nM; for remaining activity at 0.1 µM / remaining activity at 0.5 µM: read-out: % Enzyme Activity (relative to DMSO controls)", "source_text": "However, the Aurora A/B selectivity ratios derived from our in vitro and in vivo data can be compared to prioritize inhibitors."}, "[2]": {"tested_on": "pLATS2(Ser 83) in HeLa cells", "assay": "Substrate phosphorylation immunofluorescence assay, pLATS2(Ser 83), HeLa", "type": "cell-based, human", "procedure": "(§1) We employed the protocol described in Figure 3D to analyze substrate phosphorylation in HeLa cells following treatment with all 10 inhibitors in dose–response. Asynchronous cells were incubated with vehicle (DMSO) or different inhibitor doses for 8 h and then fixed and labeled with a mixture of three antibodies directed against pLATS2(Ser 83), pH3(Ser 28), and MPM2 [which detects mitotic phosphoepitopes; ([86])]. While both the anti-pLATS2(Ser 83) and MPM2 antibodies are mouse monoclonals, they are of different IgG subclasses [IgG2b for anti-pLATS2(Ser 83) and IgG1 for MPM2], and can thus be detected with subclass-specific secondary antibodies (Table S3 in Supplementary Material).\n(§2) In control mitotic cells, pLATS2(Ser 83) is concentrated in foci around the spindle poles (Figure 3E; top row – green arrow) and pH3(Ser 28) is on the mitotic chromatin (Figure 3E; top row – red arrow). Selective kinase inhibition should result in loss of one signal but not the other, as illustrated by the example images for specific conditions in Figure 3E (middle and bottom rows). Cells were imaged in 4 channels to visualize pLATS2(Ser 83), pH3(Ser 28), MPM2, and DNA (labeled with Hoechst) and mitotic cells were segmented based on their bright MPM2 labeling (Figure 3E). Intensity and area thresholds were set to select the pLATS2(Ser 83) foci and the pH3(Ser 28)-labeled chromatin in their respective channels in DMSO-treated control cells and the same thresholds were applied for inhibitor-treated cells. The mean fluorescence intensity per pixel was measured to assess the activities of the kinases targeting these two substrate phosphorylation sites.\n(§3) Twelve thousand HeLa cells, 10,000 U2OS cells, or 8,000 RPE1 cells were seeded into 96-well glass-bottom Sensoplates (Greiner) 16 h before inhibitor addition. Prior to seeding, the glass-bottom plates were coated with poly-L-lysine (Sigma). […] After 8 h cells were fixed with 4% PFA for 20 min at room temperature. The fixed cells were washed with PBS. For immunostaining, cells were permeabilized and blocked with PBS containing 10% normal donkey serum (Jackson ImmunoResearch) and 0.1% Triton-X100 for 1 h at room temperature. Primary antibodies against phospho-LATS2 (Ser 83), phospho-histone H3(Ser 28), and anti-phospho-MPM2 (see Table S3 in Supplementary Material) were incubated for 1 h at room temperature. […] Cells were then washed twice with PBS containing 0.1% Triton-X100. Image acquisition in four channels was performed using a CV7000 spinning disk confocal system (Yokogawa Electric Corporation) with a 40 × 0.95 NA U-PlanApo objective and 2560 × 2160 pixel sCMOS camera. […] Fifty fields per well were imaged with quadruplicate wells for each condition. Image analysis was done using the CV7000 image analysis software (Yokogawa Electric Corporation). Between 100 and 1,000 mitotic cells per condition were segmented applying object identification parameters to select for bright MPM2 labeling. Using a nuclear identifier protocol, minimum intensity thresholds were set for pLATS2(Ser 83) and the pH3(Ser 28) signals, and the resulting identified objects were eroded, dilated, and filtered for size by user-defined thresholds. For only the MPM2-positive mitotic cells, the mean fluorescence intensity of the identified pLATS2(Ser 83) and pH3(Ser 28) objects was measured, and the average intensity per cell per well was calculated. The same thresholds were applied for all of the inhibitor-treated samples, which were processed, imaged, and analyzed in parallel with control DMSO-treated cells. Data were fit using a four-parameter, variable slope fit in Prism (GraphPad). Primary and secondary antibody dilutions can be found in Table S3 in Supplementary Material."}, "[3]": {"tested_on": "pLATS2(Ser 83) in RPE1 cells", "assay": "Substrate phosphorylation immunofluorescence assay, pLATS2(Ser 83), RPE1", "type": "cell-based, human", "conditions": "for IC50: Homo sapiens, read-out: pLATS2 (Ser83) IC50", "procedure": "as §1, §2, §3"}, "[4]": {"tested_on": "pLATS2(Ser 83) in U2OS cells", "assay": "Substrate phosphorylation immunofluorescence assay, pLATS2(Ser 83), U2OS", "type": "cell-based, human", "conditions": "for IC50: Homo sapiens, read-out: pLATS2 (Ser83) IC50", "procedure": "as §1, §2, §3"}, "[5]": {"tested_on": "pH3(Ser 28) in HeLa cells", "assay": "Substrate phosphorylation immunofluorescence assay, pH3(Ser 28), HeLa", "type": "cell-based, human", "conditions": "for pHistone H3 (Ser28) IC50: 8 h inhibitor treatment", "quoted_text": "(§4) After 8 h cells were fixed with 4% PFA for 20 min at room temperature. The fixed cells were washed with PBS. For immunostaining, cells were permeabilized and blocked with PBS containing 10% normal donkey serum (Jackson ImmunoResearch) and 0.1% Triton-X100 for 1 h at room temperature. Primary antibodies against phospho-LATS2 (Ser 83), phospho-histone H3(Ser 28), and anti-phospho-MPM2 (see Table S3 in Supplementary Material) were incubated for 1 h at room temperature. […] Cells were then washed twice with PBS containing 0.1% Triton-X100. […] Fifty fields per well were imaged with quadruplicate wells for each condition. Image analysis was done using the CV7000 image analysis software (Yokogawa Electric Corporation). Between 100 and 1,000 mitotic cells per condition were segmented applying object identification parameters to select for bright MPM2 labeling. Using a nuclear identifier protocol, minimum intensity thresholds were set for pLATS2(Ser 83) and the pH3(Ser 28) signals, and the resulting identified objects were eroded, dilated, and filtered for size by user-defined thresholds. […] The same thresholds were applied for all of the inhibitor-treated samples, which were processed, imaged, and analyzed in parallel with control DMSO-treated cells. Data were fit using a four-parameter, variable slope fit in Prism (GraphPad)."}, "[6]": {"tested_on": "pH3(Ser 28) in RPE1 cells", "assay": "Substrate phosphorylation immunofluorescence assay, pH3(Ser 28), RPE1", "type": "cell-based, human", "quoted_text": "as §4"}, "[7]": {"tested_on": "pH3(Ser 28) in U2OS cells", "assay": "Substrate phosphorylation immunofluorescence assay, pH3(Ser 28), U2OS", "type": "cell-based, human", "quoted_text": "as §4"}, "[8]": {"tested_on": "pAuroraA(Thr 288) in HeLa cells", "assay": "Immunoblotting of Aurora A activation loop phosphorylation", "type": "cell-based, human", "conditions": "for Effect on pAuroraA(Thr 288): dose–response; for IC50: Homo sapiens, read-out: IC50 pAuroraA(Thr 288)"}, "[9]": {"tested_on": "pAuroraB(Thr 232), pH3(Ser 10), pH3(Ser 28) in HeLa cells", "assay": "Immunoblotting of pAuroraB(Thr 232), pH3(Ser 28) and pH3(Ser 10)", "type": "cell-based, human", "conditions": "immunoblot; for Effect on pH3(Ser 10), pH3(Ser 28), pAuroraB(Thr 232): dose–response"}, "[10]": {"molecular_target": "Aurora B", "conditions": "cited from earlier work; for IC50: read-out: Aurora B IC50 (Published)"}, "[11]": {"conditions": "Homo sapiens, 8 h, read-out: pHistone H3 (Ser28) IC50"}},
  "note": "Entries after “also recorded” stand apart in the source; their conditions may differ. Read-outs that look alike come from different tables or passages of the source.",
  "data": [
    {"smiles": "CCn1cc(-c2ccnc3[nH]c(-c4cccc(CN(C)C)c4)cc23)c(-c2ccc(NC(=O)N(C)C)cc2)n1", "note": "[GSK1070916]", "values": [
      {"measurement": "remaining activity at 0.1 µM", "setting": "[1]", "result": 102, "unit": "%"},
      {"measurement": "pLATS2 (Ser83) IC50", "setting": "[2]; HeLa, 8 h inhibitor treatment", "result": "NE (100 nM); also recorded: NE@100 nM"},
      {"measurement": "pLATS2 (Ser83) IC50", "setting": "[3]; RPE1, 8 h inhibitor treatment", "result": "NE@200 nM"},
      {"measurement": "pLATS2 (Ser83) IC50", "setting": "[4]; 8 h inhibitor treatment", "result": "NE@200 nM"},
      {"measurement": "Concentration completely eliminating pH3(Ser 28) labeling without affecting pLATS2(Ser 83) labeling", "setting": "[5]", "result": "< 100", "unit": "nM"},
      {"measurement": "IC50", "setting": "[5]; [11]", "result": 0.006, "unit": "µM"},
      {"measurement": "IC50", "setting": "[6]; Homo sapiens, RPE-1, 8 h, read-out: pHistone H3 (Ser28) IC50", "result": 0.015, "unit": "µM"},
      {"measurement": "IC50", "setting": "[7]; [11]", "result": 0.008, "unit": "µM"},
      {"measurement": "Effect on Aurora A activity (pAuroraA Thr 288)", "setting": "[8]; immunoblot, 300 nM (Figure S6)", "result": "inhibited Aurora A activity"},
      {"measurement": "Effect on pAuroraA(Thr 288)", "setting": "[8]; immunoblot", "result": "did not affect"},
      {"measurement": "Concentration eliminating Aurora B activity without affecting pAuroraA (Thr 288)", "setting": "[9]", "result": "< 100", "unit": "nM"},
      {"measurement": "Effect on pH3(Ser 10), pH3(Ser 28), pAuroraB(Thr 232)", "setting": "[9]", "result": "eliminated"},
      {"measurement": "Ki", "setting": "[10]; ref 61, read-out: Aurora B-INCENP Ki (Published)", "result": 0.00038, "unit": "µM"}
    ]},
    {"smiles": "O=C(O)[C@]1(Cc2cccc(Nc3nccs3)n2)CC[C@@H](Oc2cccc(Cl)c2F)CC1", "note": "[MK-5108]", "values": [
      {"measurement": "remaining activity at 0.1 µM", "setting": "[1]", "result": 37.7, "unit": "%"},
      {"measurement": "remaining activity at 0.5 µM", "setting": "[1]; 500 nM", "result": 6.95, "unit": "%"},
      {"measurement": "IC50", "setting": "[2]; Homo sapiens, HeLa, 8 h, read-out: pLATS2 (Ser83) IC50, HeLa, 8 h inhibitor treatment", "result": "0.6 to 0.8", "unit": "µM"},
      {"measurement": "IC50", "setting": "[2]; read-out: pLATS2 (Ser83) IC50, HeLa, 8 h inhibitor treatment", "result": 0.61, "unit": "µM"},
      {"measurement": "IC50", "setting": "[3]; RPE-1, 8 h", "result": 1.8, "unit": "µM"},
      {"measurement": "IC50", "setting": "[4]; 8 h", "result": 1.2, "unit": "µM"},
      {"measurement": "pHistone H3 (Ser28) IC50", "setting": "[5]", "result": "NE (9 μM); also recorded: NE@9 μM"},
      {"measurement": "inhibition at 15 µM", "setting": "[6]; Homo sapiens, RPE-1, read-out: pHistone H3 (Ser28) inhibition at highest concentration tested", "result": 80, "unit": "%"},
      {"measurement": "inhibition at 15 µM", "setting": "[7]; Homo sapiens, read-out: pHistone H3 (Ser28) inhibition at highest concentration tested", "result": 20, "unit": "%"},
      {"measurement": "IC50", "setting": "[8]", "result": "< 0.1", "unit": "µM"},
      {"measurement": "Effect on pAuroraA(Thr 288)", "setting": "[8]; immunoblot", "result": "completely eliminate Thr 288 phosphorylation"},
      {"measurement": "Effect on pH3(Ser 10), pH3(Ser 28), pAuroraB(Thr 232)", "setting": "[9]", "result": "no effect"},
      {"measurement": "IC50", "setting": "[10]; ref 56", "result": 0.0141, "unit": "µM"}
    ]},
    {"smiles": "O=C(c1cccc(Cl)c1F)N1CCN(Cc2cccc(Nc3nccs3)n2)CC1", "note": "[MK-8745]", "values": [
      {"measurement": "% Enzyme Activity (relative to DMSO controls)", "setting": "[1]; 500 nM", "result": 28.78, "unit": "%"},
      {"measurement": "remaining activity at 0.5 µM", "setting": "[1]; 500 nM", "result": 29.6, "unit": "%"},
      {"measurement": "IC50", "setting": "[2]; HeLa, 8 h inhibitor treatment, read-out: pLATS2 (Ser83) IC50", "result": 0.61, "unit": "µM"},
      {"measurement": "IC50", "setting": "[2]; Homo sapiens, HeLa, 8 h, HeLa, 8 h inhibitor treatment, read-out: pLATS2 (Ser83) IC50", "result": "0.6 to 0.8", "unit": "µM"},
      {"measurement": "Lowest concentration to maximally inhibit Aurora A in cells relative to lowest AZD1152-HQPA concentration to fully inhibit Aurora B", "setting": "[2]; cellular assays", "result": "> 100", "unit": "fold"},
      {"measurement": "IC50", "setting": "[3]; RPE-1, RPE1, 8 h inhibitor treatment", "result": 2.3, "unit": "µM"},
      {"measurement": "IC50", "setting": "[4]; 8 h inhibitor treatment", "result": 1.7, "unit": "µM"},
      {"measurement": "pHistone H3 (Ser28) IC50", "setting": "[5]", "result": "NE (9 μM); also recorded: NE@9 µM"},
      {"measurement": "pHistone H3 (Ser28) IC50", "setting": "[6]; RPE1, 8 h inhibitor treatment", "result": "NE@15 µM"},
      {"measurement": "pHistone H3 (Ser28) IC50", "setting": "[7]; 8 h inhibitor treatment", "result": "NE@15 µM"},
      {"measurement": "IC50", "setting": "[8]; immunoblot, taxol-arrested mitotic lysates", "result": "< 0.1", "unit": "µM"},
      {"measurement": "Effect on pAuroraA(Thr 288)", "setting": "[8]; immunoblot", "result": "completely eliminate Thr 288 phosphorylation"},
      {"measurement": "Effect on pH3(Ser 10), pH3(Ser 28), pAuroraB(Thr 232)", "setting": "[9]", "result": "no effect"},
      {"measurement": "IC50", "setting": "[10]; ref 57", "result": 0.28, "unit": "µM"}
    ]}
  ]
}
